Consider two compounds from US6589325B1, “Phthalocyanine compounds, water-base ink compositions and colored products” (Nippon Kayaku Kabushiki Kaisha, priority 1999, dated 2003).

A short description of series [1]: water fastness of recorded image, stirred in water. The format is physicochemical. The conditions noted are these: for water fastness (summary in words): plain paper and special paper; for Water fastness Judgment / Water fastness (ΔE): stirred in water 2 min; for Water fastness Judgment: JIS fading gray scale; for Water fastness (ΔE): color difference before/after. How it is done:
(§1) The solution of the composition as described below was prepared and filtered through a 0.45 μm membrane filter to prepare the water-based ink compositions for ink-jetting. Ion-exchanged water was used. The water-based ink compositions were prepared with water and ammonium hydroxide to have a pH of 8-10 and a total amount of 100 parts.
(§2) By using an ink-jet printer (Trade name: PICTY80L, made by NEC KK), ink-jet recordings were done on three kinds of recording paper: a plain paper (Printer Paper A4, TLB5A4S, made by Canon KK), a special paper A (Color BJ Paper LC101, made by Canon KK), a special paper B (Color Image Jet Coat Paper STX73A4, made by Sharp KK). The test results on hue, light fastness, water fastness and color rendering property in recorded images by the water-based ink compositions (containing the compounds of Example 1 to 2) of the present invention are shown in Table 2.
(§3) The ink compositions for two comparative examples were prepared so as to coincide in optical density with the black ink of the present invention as in the above (A), but the respective ink compositions contained C.I. Direct Black 19 (represented by following Formula), an azo colorant generally applied for an ink-jet black colorant (Comparative example 1) and the compound (represented by following Formula) described in JP Laid-Open No. 140270/1990 (Comparative example 2) respectively in place of the colorant. The test results on hue, light fastness, water fastness and color rendering property in recorded images pictured by the ink compositions for the comparative examples also are shown in Table 2. [drawing 4]
The recorded material was set in a beaker filled with water, stirred for 2 min and air-dried. The change in the recorded image was determined based on the JIS fading gray scale. Color difference (ΔE) between before and after the treatment also was determined by the above colorimetry system.

A short description of series [2]: light fastness of recorded image, carbon arc fade meter. The format is physicochemical. The conditions noted are these: for light fastness (summary in words): depending on the kind of recording material; for Light fastness Judgment / Light fastness (ΔE): carbon arc 20 hours; for Light fastness Judgment: blue scale JIS L-0841; for Light fastness (ΔE): color difference before/after. As for the experimental part:
as §1, §2, §3
A carbon arc fade meter (by Suga Testing Machine KK) was used to irradiate carbon arc on the recorded image for 20 hours. Grade was determined based on blue scale grade as prescribed in JIS L-0841. Color difference (ΔE) between before and after the irradiation also was determined by the above colorimetry system.

The structures appear in SMILES notation.

As to `Nc1ccc(N=Nc2ccc(N=Nc3c(S(=O)(=O)[O-])cc4cc(S(=O)(=O)[O-])c(N=Nc5ccc(N=Nc6ccc(N)cc6N)cc5)c(O)c4c3N)cc2)c(N)c1.[Na+].[Na+]` [Comparative Example 1, C.I. Direct Black 19], in series [1], the “water fastness (summary in words)” value is given as “inferior”. In addition, the “Water fastness Judgment” value in series [1] (plain paper) is reported as “Grade 2”; in series [1] (special paper A), “Grade 4”; in series [1] (special paper B), “Grade 4”. The results for the “Water fastness (ΔE)” value in series [1] (plain paper), in series [1] (special paper A) and in series [1] (special paper B) were “(11.5)”, “(2.9)” and “(2.8)”, respectively. In series [2], the “light fastness (summary in words)” value is listed as “unstable quality”. The entries for the “Light fastness Judgment” value in series [2] (plain paper), in series [2] (special paper A) and in series [2] (special paper B) were “Grade 4”, “Grade 3-4” and “Grade 4”, respectively. The “Light fastness (ΔE)” value is on record as “(2.0)” in series [2] (plain paper), “(4.1)” in series [2] (special paper A) and “(1.5)” in series [2] (special paper B).

Take `Nc1ccc2cc(S(=O)(=O)O)c(N=Nc3ccc(N=Nc4cc(C(=O)O)cc(C(=O)O)c4)c4ccccc34)c(O)c2c1` [Comparative Example 2]: the “water fastness (summary in words)” value in series [1] is listed as “inferior”. For the same compound, the “Water fastness Judgment” value in series [1] (plain paper) is “Grade 3”; in series [1] (special paper A) it was “Grade 5”; in series [1] (special paper B), “Grade 2”. Further, the “Water fastness (ΔE)” value in series [1] (plain paper) is recorded as “(6.2)”; in series [1] (special paper A) it was “(1.0)”; in series [1] (special paper B), “(10.3)”. Further, the “light fastness (summary in words)” value in series [2] is “unstable quality”. The “Light fastness Judgment” value in series [2] (plain paper) is “Grade 4”; in series [2] (special paper A) it was “Grade 3”; in series [2] (special paper B), “Grade 4”. In addition, the “Light fastness (ΔE)” value in series [2] (plain paper) was “(1.3)”; in series [2] (special paper A) it was “(8.0)”; in series [2] (special paper B), “(2.8)”.
